# Source: patent US9669005B2, “Use of naringenin in preparing drugs for preventing and/or treatment abdominal aortic aneurysm” (priority 2013, dated 2017)
# Experiments:
# Assay type in all cases: in vivo
# [1] = tested on: macrophages and leukocytes in adventitia in vascular walls; assay: Immunohistochemical staining of inflammatory cells (Mac3, CD45) in vascular walls, CaPO4 model; conditions: CaPO4 daubed mice, FIG. 3A
# Source text: In the onset of abdominal aortic aneurysm, inflammatory cell infiltration of vascular walls is a common feature. We used histochemical staining to identify inflammatory cells infiltrated in vascular walls. Mac3 is the result of immumohistochemical staining on anti-Mac3 specific antibody, representative of macrophage, and CD45 is the result of immumohistochemical staining on anti-CD45 specific antibody, representative of leukocyte.
# IL-6 and MCP-1 = assay: Immunohistochemical staining of IL-6 and MCP-1 on vascular walls, CaPO4 model; conditions: CaPO4 daubed mice; immunohistochemistry; FIG. 3B
# Source text: IL-6 and MCP-1 are proinflammatory chemotactic factors and cytokines, and they are mainly from vascular walls. MCP-1 can release more matrix metalloproteinase to degrade matrix by recruiting leukocytes, which mediats vascular remodeling and expanding (MacTaggart J N et al. Deletion of ccr2 but not ccr5 or cxcr3 inhibits aortic aneurysm formation Surgery. 2007; 142:284-288; Ishibashi M et al. Bone marrow-derived monocyte chemoattractant protein-1 receptor ccr2 is critical in angiotensin ii-induced acceleration of atherosclerosis and aneurysm formation in hypercholesterolemic mice. Arterioscl throm vasc biol. 2004; 24: e174-178), while IL-6 can enlarge effect of MCP-1 to aggravate the onset of abdominal aortic aneurysms (Tieu B C et al. An adventitial il-6/mcpl amplification loop accelerates macrophage-mediated vascular inflammation leading to aortic dissection in mice. J Clin Invest. 2009; 119:3637-3651). We used histochemical staining to identify the expressions of IL-6 and MCP-1 on vascular walls. IL-6 and MCP-1 were immunohistochemical results of anti-IL-6 and anti-MCP-1 specific antibodies (purchased from Abcam, Cambridge Company, UK), respectively.
# matrix metalloproteinase = assay: In situ zymography, CaPO4 model; conditions: CaPO4 daubed mice; FIG. 4A
# Method: (§1) After the aortas of mice were perfused with PBS, fresh tissue was directly embedded with OCT, put in liquid nitrogen for freezing, and then continuously sliced. Firstly, washing was performed with PBS for 3 min, thrice. A fluorescently labeled DQ-gelation-FITC substrate (Sigma-Aldrich, St. Louis, Mo.) was incubated 1 hour at 37° C. Under normal circumstances, fluorescent label for the substrate was packaged, so there is no fluorescence; after activated gelatinase degraded gelatin, green fluorescent label would be exposed. After the section was incubated, washing was performed with PBS for 3 min, thrice, and then the section was sealed. Immunofluorescence confocal microscopy was used to irradiate. The stronger fluorescence was, which means, the stronger activity of matrix metalloproteinase was.
# [2] = tested on: inflammatory cell (macrophage and leukocyte) in adventitia; assay: Immunofluorescent staining of inflammatory cells (Mac3, CD45), angiotensin II model; conditions: AngII ApoE-/- mice; naringenin gavage vs water; FIG. 7A
# Source text: CD45 and Mac3 were results of immunofluorescent staining on […].
# metalloproteinase = assay: In situ zymography, angiotensin II model; conditions: AngII ApoE-/- mice; naringenin gavage; FIG. 8A
# Method: as §1
# [3] = tested on: formed arterial aneurysms in CaPO4 daubed C57 mice; assay: Formed abdominal aortic aneurysms, CaPO4 model, naringenin gavage from 7 days after daubing
# Method: In CaPO4 model, we daubed CaPO4 at infrarenal abdominal aortas in 12-week old of male C57 mice (totally 36 mice), and arterial aneurysms were formed 7 days later. Next, the 36 mice were randomly divided into 2 groups: one group was given naringenin (50 mg/kg/day) gavage, and another group was given equal water gavage. Gavage was performed for 2 weeks (8 mice for each group) and 4 weeks (10 mice for each group), respectively.
structure (smiles),measurement,setting,value
O=C1C[C@@H](c2ccc(O)cc2)Oc2cc(O)cc(O)c21 [naringenin],infiltration of macrophages and leukocytes in adventitia in vascular walls,[1],reduce such effect
same,expression of IL-6 and MCP-1 in adventitia in vascular walls,IL-6 and MCP-1,reduce their expressions
same,activity of matrix metalloproteinase (in situ zymography),matrix metalloproteinase,reduce the activity of matrix metalloproteinase induced by CaPO4 daubing
same,infiltration of inflammatory cell (macrophage and leukocyte) in adventitia,[2],significantly reduce
same,activated metalloproteinase (in situ zymography),metalloproteinase,significantly decreases
same,average diameter of infrarenal abdominal aortas (ex vivo),"[3]; aneurysms formed 7 days after CaPO4, naringenin 50 mg/kg/day gavage 2 weeks, control 1.488±0.42, P<0.05",0.884±0.33 mm
same,average diameter of infrarenal abdominal aortas (ex vivo),"[3]; aneurysms formed 7 days after CaPO4, naringenin 50 mg/kg/day gavage 4 weeks, control 1.718±0.64, P<0.05",0.9935±0.5 mm
